ChEMBL document CHEMBL3991601, “The target landscape of clinical kinase drugs” (Science, 2017)
Active and inactive are the calls of the source. Cut-off read from the data, not from the text of the source, for most assays here: actives have a measured Kd and inactives only a lower limit.

How the values were obtained:
[1] = target: T1, Serine/threonine-protein kinase TBK1 (Homo sapiens, UniProt Q9UHD2)
T1 sequence (Q9UHD2 whole entry): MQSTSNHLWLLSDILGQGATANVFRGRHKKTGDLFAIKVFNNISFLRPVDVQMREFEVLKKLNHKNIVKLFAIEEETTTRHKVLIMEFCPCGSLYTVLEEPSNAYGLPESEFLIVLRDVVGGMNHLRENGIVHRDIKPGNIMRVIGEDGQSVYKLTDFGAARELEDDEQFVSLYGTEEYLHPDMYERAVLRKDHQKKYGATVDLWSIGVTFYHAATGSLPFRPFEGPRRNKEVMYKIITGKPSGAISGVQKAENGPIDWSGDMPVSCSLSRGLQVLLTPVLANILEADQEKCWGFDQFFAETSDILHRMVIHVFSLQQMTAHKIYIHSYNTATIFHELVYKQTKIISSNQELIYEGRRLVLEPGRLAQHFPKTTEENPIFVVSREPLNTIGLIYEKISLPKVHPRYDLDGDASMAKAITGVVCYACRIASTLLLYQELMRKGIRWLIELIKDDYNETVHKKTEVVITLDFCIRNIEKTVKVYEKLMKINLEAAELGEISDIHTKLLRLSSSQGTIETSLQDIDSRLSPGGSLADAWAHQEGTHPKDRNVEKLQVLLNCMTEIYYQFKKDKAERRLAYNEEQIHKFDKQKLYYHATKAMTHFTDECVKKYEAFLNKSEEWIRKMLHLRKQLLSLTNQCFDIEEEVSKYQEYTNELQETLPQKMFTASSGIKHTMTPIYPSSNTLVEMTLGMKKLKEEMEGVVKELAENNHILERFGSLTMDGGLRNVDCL

dCTP pyrophosphatase 1 = target: T2, dCTP pyrophosphatase 1 (Homo sapiens, UniProt Q9H773)
T2 sequence (Q9H773 whole entry): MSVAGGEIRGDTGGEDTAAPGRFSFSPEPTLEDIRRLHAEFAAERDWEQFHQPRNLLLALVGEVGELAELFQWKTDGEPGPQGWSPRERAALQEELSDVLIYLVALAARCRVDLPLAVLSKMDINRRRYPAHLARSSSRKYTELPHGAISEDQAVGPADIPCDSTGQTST

[2] = target: Putative heat shock protein HSP 90-beta 2 (Homo sapiens, UniProt Q58FF8)
[3] = target: T3, Mitogen-activated protein kinase 15 (Homo sapiens, UniProt Q8TD08)
T3 sequence (Q8TD08 whole entry): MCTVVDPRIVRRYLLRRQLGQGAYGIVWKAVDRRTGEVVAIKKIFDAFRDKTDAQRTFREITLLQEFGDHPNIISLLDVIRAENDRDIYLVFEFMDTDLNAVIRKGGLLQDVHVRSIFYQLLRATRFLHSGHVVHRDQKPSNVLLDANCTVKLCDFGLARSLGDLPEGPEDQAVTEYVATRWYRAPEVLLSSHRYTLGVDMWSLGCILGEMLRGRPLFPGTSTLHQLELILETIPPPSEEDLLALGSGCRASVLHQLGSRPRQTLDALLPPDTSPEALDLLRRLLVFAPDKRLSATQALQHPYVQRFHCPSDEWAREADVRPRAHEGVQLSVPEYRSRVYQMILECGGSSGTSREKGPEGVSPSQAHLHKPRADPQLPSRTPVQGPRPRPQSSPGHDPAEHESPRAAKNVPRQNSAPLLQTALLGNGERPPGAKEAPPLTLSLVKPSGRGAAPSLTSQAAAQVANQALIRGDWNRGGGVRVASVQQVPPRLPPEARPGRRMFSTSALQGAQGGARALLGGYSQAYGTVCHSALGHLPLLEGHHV

[4] = target: Protein-tyrosine kinase 6 (Homo sapiens, UniProt Q13882)
[5] = target: T4, ATP-dependent 6-phosphofructokinase, platelet type (Homo sapiens, UniProt Q01813)
T4 sequence (Q01813 whole entry): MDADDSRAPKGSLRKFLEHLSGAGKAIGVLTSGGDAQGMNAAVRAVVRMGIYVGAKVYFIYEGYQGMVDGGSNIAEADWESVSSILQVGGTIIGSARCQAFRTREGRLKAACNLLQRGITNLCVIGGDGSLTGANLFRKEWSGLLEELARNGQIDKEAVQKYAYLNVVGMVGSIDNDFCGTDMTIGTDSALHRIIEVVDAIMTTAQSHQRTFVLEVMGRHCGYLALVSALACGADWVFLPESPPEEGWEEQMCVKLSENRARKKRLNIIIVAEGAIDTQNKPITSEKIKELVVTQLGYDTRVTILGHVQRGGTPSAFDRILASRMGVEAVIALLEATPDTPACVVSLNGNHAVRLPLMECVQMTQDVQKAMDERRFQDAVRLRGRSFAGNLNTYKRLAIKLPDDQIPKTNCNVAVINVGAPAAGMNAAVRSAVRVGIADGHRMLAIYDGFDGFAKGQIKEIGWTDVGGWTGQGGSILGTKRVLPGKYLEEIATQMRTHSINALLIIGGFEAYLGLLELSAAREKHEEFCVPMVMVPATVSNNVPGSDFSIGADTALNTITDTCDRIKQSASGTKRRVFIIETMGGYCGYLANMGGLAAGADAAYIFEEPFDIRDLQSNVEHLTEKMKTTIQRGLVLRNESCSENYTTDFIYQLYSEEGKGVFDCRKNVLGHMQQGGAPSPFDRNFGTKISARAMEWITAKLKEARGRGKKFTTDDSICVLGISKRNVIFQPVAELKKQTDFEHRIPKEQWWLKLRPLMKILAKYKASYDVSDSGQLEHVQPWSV

[6] = target: T5, Dual specificity mitogen-activated protein kinase kinase 5 (Homo sapiens, UniProt Q13163)
T5 sequence (Q13163 whole entry): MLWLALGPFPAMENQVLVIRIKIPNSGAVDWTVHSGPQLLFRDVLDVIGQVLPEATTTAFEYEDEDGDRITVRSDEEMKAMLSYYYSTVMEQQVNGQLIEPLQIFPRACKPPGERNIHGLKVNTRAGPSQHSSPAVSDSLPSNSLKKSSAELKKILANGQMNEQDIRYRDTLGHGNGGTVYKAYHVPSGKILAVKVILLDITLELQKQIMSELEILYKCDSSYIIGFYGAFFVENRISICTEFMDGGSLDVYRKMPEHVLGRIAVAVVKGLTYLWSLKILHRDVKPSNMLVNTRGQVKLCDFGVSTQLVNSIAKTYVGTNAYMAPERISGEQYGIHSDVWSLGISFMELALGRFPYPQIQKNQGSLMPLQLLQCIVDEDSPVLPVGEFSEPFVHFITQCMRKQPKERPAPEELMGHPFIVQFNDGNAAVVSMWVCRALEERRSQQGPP

[7] = target: Mitotic checkpoint serine/threonine-protein kinase BUB1 (Homo sapiens, UniProt O43683)

Measured: Kd
Note: in the data inactive means no Kd found up to 30 µM.

Sequence of Mitotic checkpoint serine/threonine-protein kinase BUB1 (O43683 whole entry): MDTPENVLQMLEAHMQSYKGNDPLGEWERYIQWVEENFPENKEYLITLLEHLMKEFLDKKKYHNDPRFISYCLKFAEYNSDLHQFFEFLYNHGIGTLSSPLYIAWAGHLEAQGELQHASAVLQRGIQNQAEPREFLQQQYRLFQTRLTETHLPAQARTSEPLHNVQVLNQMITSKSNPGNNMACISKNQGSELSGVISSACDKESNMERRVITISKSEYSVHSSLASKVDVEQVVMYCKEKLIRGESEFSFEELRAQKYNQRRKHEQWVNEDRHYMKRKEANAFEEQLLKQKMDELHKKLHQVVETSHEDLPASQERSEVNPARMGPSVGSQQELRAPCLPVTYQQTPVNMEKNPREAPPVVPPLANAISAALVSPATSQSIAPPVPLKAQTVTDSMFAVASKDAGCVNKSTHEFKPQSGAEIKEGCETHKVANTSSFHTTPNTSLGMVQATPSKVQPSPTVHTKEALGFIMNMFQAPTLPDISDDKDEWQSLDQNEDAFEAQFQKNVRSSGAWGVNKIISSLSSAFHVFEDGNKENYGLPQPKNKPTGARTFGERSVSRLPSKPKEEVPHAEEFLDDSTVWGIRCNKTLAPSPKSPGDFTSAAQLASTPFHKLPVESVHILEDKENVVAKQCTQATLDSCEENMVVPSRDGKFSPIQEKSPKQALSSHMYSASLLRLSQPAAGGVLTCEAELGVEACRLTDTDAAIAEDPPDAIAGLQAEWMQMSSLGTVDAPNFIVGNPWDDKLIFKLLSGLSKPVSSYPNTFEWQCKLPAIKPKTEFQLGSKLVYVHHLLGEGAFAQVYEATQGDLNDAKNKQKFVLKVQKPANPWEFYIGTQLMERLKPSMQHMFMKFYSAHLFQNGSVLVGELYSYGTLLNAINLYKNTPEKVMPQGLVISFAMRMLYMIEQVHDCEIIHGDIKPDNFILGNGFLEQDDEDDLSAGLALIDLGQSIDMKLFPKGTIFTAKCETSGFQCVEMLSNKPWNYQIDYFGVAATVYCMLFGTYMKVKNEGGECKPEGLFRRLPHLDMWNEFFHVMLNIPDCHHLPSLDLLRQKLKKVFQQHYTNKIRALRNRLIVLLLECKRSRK
Sequence of Protein-tyrosine kinase 6 (Q13882 whole entry): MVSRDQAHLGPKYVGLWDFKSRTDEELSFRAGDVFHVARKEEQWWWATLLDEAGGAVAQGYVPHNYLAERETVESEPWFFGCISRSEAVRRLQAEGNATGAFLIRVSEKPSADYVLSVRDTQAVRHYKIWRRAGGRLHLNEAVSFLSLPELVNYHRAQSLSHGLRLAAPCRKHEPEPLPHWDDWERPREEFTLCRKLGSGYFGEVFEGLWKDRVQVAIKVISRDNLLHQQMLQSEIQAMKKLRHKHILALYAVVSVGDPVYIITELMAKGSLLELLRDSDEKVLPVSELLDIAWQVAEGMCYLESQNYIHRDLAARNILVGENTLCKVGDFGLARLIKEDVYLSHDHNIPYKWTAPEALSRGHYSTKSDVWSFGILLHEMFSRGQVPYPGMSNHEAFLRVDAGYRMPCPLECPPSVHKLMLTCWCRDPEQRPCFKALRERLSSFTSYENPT
Sequence of Putative heat shock protein HSP 90-beta 2 (Q58FF8 whole entry): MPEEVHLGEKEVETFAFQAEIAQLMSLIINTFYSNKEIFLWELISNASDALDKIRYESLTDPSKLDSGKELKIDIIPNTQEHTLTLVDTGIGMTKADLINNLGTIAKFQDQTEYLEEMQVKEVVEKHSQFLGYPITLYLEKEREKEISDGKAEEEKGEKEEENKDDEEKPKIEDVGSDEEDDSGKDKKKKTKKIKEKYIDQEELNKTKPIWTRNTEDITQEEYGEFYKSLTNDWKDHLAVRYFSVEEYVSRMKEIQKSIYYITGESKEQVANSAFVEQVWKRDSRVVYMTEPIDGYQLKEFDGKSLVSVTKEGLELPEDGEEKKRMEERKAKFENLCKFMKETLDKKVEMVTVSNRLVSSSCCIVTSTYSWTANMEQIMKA

CCc1cc2c(cc1N1CCC(N3CCOCC3)CC1)C(C)(C)c1[nH]c3cc(C#N)ccc3c1C2=O [ALECTINIB]
inactive: [1] > 30 µM | dCTP pyrophosphatase 1 > 30 µM | [2] > 30 µM | [3] > 30 µM | [4] > 30 µM | [5] > 30 µM | [6] > 30 µM | [7] > 30 µM

O=S(=O)(c1cccc2c(O)nccc12)N1CCCNCC1 [HYDROXYFASUDIL]
inactive: [1] > 30 µM | dCTP pyrophosphatase 1 > 30 µM | [2] > 30 µM | [3] > 30 µM | [4] > 30 µM | [5] > 30 µM | [6] > 30 µM | [7] > 30 µM
